Reference: PubChem BioAssay AID1963826 (Molecular Pharmacology Branch, DTP, NCI, 2024)

System: 926638-142-R-J1-PDC complex spheroid viability
Experiment: Anticancer human tumor 926638-142-R-J1-PDC patient-derived endometrial carcinoma cell line growth inhibition [POLQ]
Conditions: for IC50: curve of first compound; for viability, T/C: stronger effect = lower value; active = viability on the fitted dose curve at most 10% of control; inactive = the rest
How it was run: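 Patient-derived tumour cells were co-cultured with HUVEC and mesenchymal stem cells as multicellular spheroids at 37 °C. They were treated with POLQ inhibitors (novobiocin, ART-558, RP6685) alone or combined with other agents. Top concentrations were at or near clinical Cmax (otherwise 10 microM; SN-38 at 1 microM), decreasing in half-log steps.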

[1] = second compound 0.0316 µM, first compound 0.000316 µM
[2] = second compound 0.0316 µM, first compound 0.001 µM
[3] = second compound 0.0316 µM, first compound 0.00316 µM
[4] = second compound 0.0316 µM, first compound 0.01 µM
[5] = second compound 0.0316 µM, first compound 0.0316 µM
[6] = second compound 0.0316 µM, first compound 0.1 µM
[7] = second compound 0.1 µM, first compound 0.000316 µM
[8] = second compound 0.1 µM, first compound 0.001 µM
[9] = second compound 0.1 µM, first compound 0.00316 µM
[10] = second compound 0.1 µM, first compound 0.01 µM
[11] = second compound 0.1 µM, first compound 0.0316 µM
[12] = second compound 0.1 µM, first compound 0.1 µM
[13] = second compound 0.316 µM, first compound 0.000316 µM
[14] = second compound 0.316 µM, first compound 0.001 µM
[15] = second compound 0.316 µM, first compound 0.00316 µM
[16] = second compound 0.316 µM, first compound 0.01 µM
[17] = second compound 0.316 µM, first compound 0.0316 µM
[18] = second compound 0.316 µM, first compound 0.1 µM
[19] = second compound 1 µM, first compound 0.000316 µM
[20] = second compound 1 µM, first compound 0.001 µM
[21] = second compound 1 µM, first compound 0.00316 µM
[22] = second compound 1 µM, first compound 0.01 µM
[23] = second compound 1 µM, first compound 0.0316 µM
[24] = second compound 1 µM, first compound 0.1 µM
[25] = second compound 3.16 µM, first compound 0.000316 µM
[26] = second compound 3.16 µM, first compound 0.001 µM
[27] = second compound 3.16 µM, first compound 0.00316 µM
[28] = second compound 3.16 µM, first compound 0.01 µM
[29] = second compound 3.16 µM, first compound 0.0316 µM
[30] = second compound 3.16 µM, first compound 0.1 µM
[31] = second compound 10 µM, first compound 0.000316 µM
[32] = second compound 10 µM, first compound 0.001 µM
[33] = second compound 10 µM, first compound 0.00316 µM
[34] = second compound 10 µM, first compound 0.01 µM
[35] = second compound 10 µM, first compound 0.0316 µM
[36] = second compound 10 µM, first compound 0.1 µM
[37] = second compound 0.0316 µM, first compound 0.316 µM
[38] = second compound 0.0316 µM, first compound 1 µM
[39] = second compound 0.0316 µM, first compound 3.16 µM
[40] = second compound 0.0316 µM, first compound 10 µM
[41] = second compound 0.1 µM, first compound 0.316 µM
[42] = second compound 0.1 µM, first compound 1 µM
[43] = second compound 0.1 µM, first compound 3.16 µM
[44] = second compound 0.1 µM, first compound 10 µM
[45] = second compound 0.316 µM, first compound 0.316 µM
[46] = second compound 0.316 µM, first compound 1 µM
[47] = second compound 0.316 µM, first compound 3.16 µM
[48] = second compound 0.316 µM, first compound 10 µM
[49] = second compound 1 µM, first compound 0.316 µM
[50] = second compound 1 µM, first compound 1 µM
[51] = second compound 1 µM, first compound 3.16 µM
[52] = second compound 1 µM, first compound 10 µM
[53] = second compound 3.16 µM, first compound 0.316 µM
[54] = second compound 3.16 µM, first compound 1 µM
[55] = second compound 3.16 µM, first compound 3.16 µM
[56] = second compound 3.16 µM, first compound 10 µM
[57] = second compound 10 µM, first compound 0.316 µM
[58] = second compound 10 µM, first compound 1 µM
[59] = second compound 10 µM, first compound 3.16 µM
[60] = second compound 10 µM, first compound 10 µM
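Note: spheroids exposed to drugs for one week before readout.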
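Throughout, for viability, T/C: percent viability relative to DMSO vehicle control wells set as 100%.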

Cn1ncnc1[C@H]1c2n[nH]c(=O)c3cc(F)cc(c23)N[C@@H]1c1ccc(F)cc1 + COC1C(OC(N)=O)C(O)C(Oc2ccc3c(O)c(NC(=O)c4ccc(O)c(CC=C(C)C)c4)c(=O)oc3c2C)OC1(C)C
> 100 nM: IC50 (second compound 0.0316 µM) | IC50 (second compound 0.1 µM) | IC50 (second compound 0.316 µM) | IC50 (second compound 1 µM) | IC50 (second compound 3.16 µM) | IC50 (second compound 10 µM)
inactive: viability, T/C [1] 84.5% | viability, T/C [2] 83.7% | viability, T/C [3] 81.7% | viability, T/C [4] 86.5% | viability, T/C [5] 71.5% | viability, T/C [6] 79.5% | viability, T/C [7] 106% | viability, T/C [8] 96.4% | viability, T/C [9] 86% | viability, T/C [10] 90.5% | viability, T/C [11] 76.3% | viability, T/C [12] 69.5% | viability, T/C [13] 117% | viability, T/C [14] 86.4% | viability, T/C [15] 72.7% | viability, T/C [16] 78.5% | viability, T/C [17] 69.7% | viability, T/C [18] 60.3% | viability, T/C [19] 85.5% | viability, T/C [20] 94.1% | viability, T/C [21] 92.3% | viability, T/C [22] 60.1% | viability, T/C [23] 78.6% | viability, T/C [24] 76.7% | viability, T/C [25] 68.5% | viability, T/C [26] 81.7% | viability, T/C [27] 74.3% | viability, T/C [28] 81.7% | viability, T/C [29] 78.5% | viability, T/C [30] 69.6% | viability, T/C [31] 84.8% | viability, T/C [32] 90.2% | viability, T/C [33] 77.6% | viability, T/C [34] 81% | viability, T/C [35] 82.4% | viability, T/C [36] 76.6%

CCc1cc2c(N3CCc4c(cc(Cn5ccnc5)cc4-c4cn(C)nc4C(F)(F)F)C3=O)cc(C)nc2c(OC)n1 + Nc1ccc(C#CCN(C(=O)Cc2ncc(C(F)(F)F)cc2C(F)(F)F)c2ccc(F)cc2)nn1
1130 nM: IC50 (second compound 0.0316 µM)
426 nM: IC50 (second compound 0.1 µM)
829 nM: IC50 (second compound 0.316 µM)
728 nM: IC50 (second compound 3.16 µM)
inactive: viability, T/C [5] 86.9% | viability, T/C [6] 66.6% | viability, T/C [37] 65.4% | viability, T/C [38] 43.6% | viability, T/C [39] 51.3% | viability, T/C [40] 33.6% | viability, T/C [11] 90.7% | viability, T/C [12] 66.7% | viability, T/C [41] 52.7% | viability, T/C [42] 40.9% | viability, T/C [43] 42.1% | viability, T/C [44] 28.2% | viability, T/C [17] 83% | viability, T/C [18] 70.4% | viability, T/C [45] 55% | viability, T/C [46] 47.8% | viability, T/C [47] 44.1% | viability, T/C [48] 27.6% | viability, T/C [23] 69.3% | viability, T/C [24] 69.8% | viability, T/C [49] 56.6% | viability, T/C [50] 37.9% | viability, T/C [51] 43.5% | viability, T/C [52] 30.1% | viability, T/C [29] 76.3% | viability, T/C [30] 58.2% | viability, T/C [53] 57% | viability, T/C [54] 47.2% | viability, T/C [55] 46.9% | viability, T/C [56] 31.6% | viability, T/C [35] 60.2% | viability, T/C [36] 63.8% | viability, T/C [57] 53.8% | viability, T/C [58] 39.6% | viability, T/C [59] 42% | viability, T/C [60] 27.2%
503 nM: IC50 (second compound 10 µM)
478 nM: IC50 (second compound 1 µM)

Cn1ncnc1[C@H]1c2n[nH]c(=O)c3cc(F)cc(c23)N[C@@H]1c1ccc(F)cc1 + Nc1ccc(C#CCN(C(=O)Cc2ncc(C(F)(F)F)cc2C(F)(F)F)c2ccc(F)cc2)nn1
> 100 nM: IC50 (second compound 0.0316 µM) | IC50 (second compound 0.1 µM) | IC50 (second compound 0.316 µM) | IC50 (second compound 1 µM) | IC50 (second compound 3.16 µM) | IC50 (second compound 10 µM)
inactive: viability, T/C [1] 117% | viability, T/C [2] 89.7% | viability, T/C [3] 99.6% | viability, T/C [4] 75.7% | viability, T/C [5] 69.8% | viability, T/C [6] 74.5% | viability, T/C [7] 123% | viability, T/C [8] 90.1% | viability, T/C [9] 101% | viability, T/C [10] 78% | viability, T/C [11] 79.8% | viability, T/C [12] 68.5% | viability, T/C [13] 91.9% | viability, T/C [14] 98.5% | viability, T/C [15] 83.6% | viability, T/C [16] 84% | viability, T/C [17] 84.9% | viability, T/C [18] 66.2% | viability, T/C [19] 108% | viability, T/C [20] 96.7% | viability, T/C [21] 75.6% | viability, T/C [22] 83.2% | viability, T/C [23] 70.4% | viability, T/C [24] 80.5% | viability, T/C [25] 82.3% | viability, T/C [26] 96.3% | viability, T/C [27] 92.2% | viability, T/C [28] 92.4% | viability, T/C [29] 82.9% | viability, T/C [30] 71.2% | viability, T/C [31] 94.3% | viability, T/C [32] 99.2% | viability, T/C [33] 78.7% | viability, T/C [34] 74% | viability, T/C [35] 81.9% | viability, T/C [36] 75.7%

COc1cc(C2c3cc4c(cc3C(OC3OC5COC(C)OC5C(O)C3O)C3COC(=O)C23)OCO4)cc(OC)c1O (stereo not drawn) + Cc1cccc(N(C)C(=O)C2C(O)CCN2c2nc(C)cc(C(F)(F)F)c2C#N)c1
> 10000 nM: IC50 (second compound 0.0316 µM) | IC50 (second compound 0.1 µM) | IC50 (second compound 0.316 µM) | IC50 (second compound 1 µM) | IC50 (second compound 3.16 µM) | IC50 (second compound 10 µM)
inactive: viability, T/C [5] 83.5% | viability, T/C [6] 62.5% | viability, T/C [37] 72% | viability, T/C [38] 73% | viability, T/C [39] 56% | viability, T/C [40] 60.1% | viability, T/C [11] 76.8% | viability, T/C [12] 71.4% | viability, T/C [41] 72.3% | viability, T/C [42] 62.7% | viability, T/C [43] 67.7% | viability, T/C [44] 56% | viability, T/C [17] 95.5% | viability, T/C [18] 84.1% | viability, T/C [45] 77% | viability, T/C [46] 57.6% | viability, T/C [47] 63.9% | viability, T/C [48] 49.1% | viability, T/C [23] 89.3% | viability, T/C [24] 80.8% | viability, T/C [49] 72.2% | viability, T/C [50] 77.9% | viability, T/C [51] 67.8% | viability, T/C [52] 61.3% | viability, T/C [29] 75.8% | viability, T/C [30] 71.8% | viability, T/C [53] 69.9% | viability, T/C [54] 79.3% | viability, T/C [55] 62.7% | viability, T/C [56] 50.2% | viability, T/C [35] 80.1% | viability, T/C [36] 83.9% | viability, T/C [57] 73.6% | viability, T/C [58] 70.9% | viability, T/C [59] 59% | viability, T/C [60] 60.6%
